# Earlier results in paper PMC7114187 (Antiviral Research, 2008).
# System: NA^WT(WSN) with H274Y mutation
# Settings: cited from earlier work
smiles,measurement,value
"CCOC(=O)C1=C[C@@H](OC(CC)CC)[C@H](NC(C)=O)[C@@H](N)C1 [Oseltamivir, oseltamivir]",fold increase in the IC50 by H274Y mutation,754 fold
